Columns and labels:
Type in all cases: cell-based
[1] = system: human epithelial HeLa cells; assay: HeLa cytotoxicity assay (CellTiter-Glo); conditions: pCC50
Procedure, shortened: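 Read-out is CellTiter-Glo luminescence after 2 days at 37 °C, on IFN-γ-stimulated (10 nM) HeLa cells seeded at 5,000/well with compounds in 11-point 3-fold dose series. pCC50 from four-parameter curve fit; wells without cells set 100% cytotoxicity, stimulated cells with DMSO set 0%.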

[2] = target: T1, indoleamine 2, 3-dioxygenase (IDO1) (Homo sapiens, UniProt P14902); assay: IDO1 PBMC RapidFire MS assay (kynurenine detection by mass spectrometry); set-up: to induce the expression of indoleamine 2, 3-dioxygenase (IDO1); host or cells: human PBMC stimulated with IFN-gamma and LPS; conditions: human PBMC stimulated with IFN-γ and LPS, 2 days, pIC50, read-out: PBMC PXC50 (converted)
T1 sequence (P14902 whole entry): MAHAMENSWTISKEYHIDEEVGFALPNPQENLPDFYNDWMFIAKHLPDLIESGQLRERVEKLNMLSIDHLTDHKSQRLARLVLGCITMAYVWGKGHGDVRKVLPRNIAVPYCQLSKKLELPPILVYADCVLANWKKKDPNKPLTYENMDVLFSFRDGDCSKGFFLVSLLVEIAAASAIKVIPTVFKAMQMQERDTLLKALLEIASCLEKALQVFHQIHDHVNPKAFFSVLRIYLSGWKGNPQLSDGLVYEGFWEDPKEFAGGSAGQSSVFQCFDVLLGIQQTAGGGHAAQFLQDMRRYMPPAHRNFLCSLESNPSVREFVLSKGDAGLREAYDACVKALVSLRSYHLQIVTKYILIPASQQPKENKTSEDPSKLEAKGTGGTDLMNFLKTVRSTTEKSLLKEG
Procedure, shortened: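 Kynurenine output, read by RapidFire mass spectrometry as ratio to an internal standard, was measured after 2-day compound exposure (11-point, 3-fold dilutions) of human PBMCs induced with 100 ng/ml IFN-γ and 50 ng/ml LPS. Cell viability tracked alongside via ATP luminescence; XC50 from curve fitting.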

[3] = system: human peripheral blood mononuclear cells (PBMC); assay: PBMC cytotoxicity assay (CellTiter-Glo); conditions: 2 days, pCC50
Procedure, shortened: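 % cytotoxicity was taken from CellTiter-Glo luminescence, using wells without cells and stimulated DMSO wells as references, and fitted by four-parameter curve to give XC50. Cells were human PBMC at 50,000 per well, activated with 100 ng/ml IFN-γ plus 50 ng/ml LPS. Incubation with 11-point, 3-fold dilution series ran for 2 days at 37 °C.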

[4] = target: T1, indoleamine 2, 3-dioxygenase (IDO1); assay: IDO1 HeLa RapidFire MS assay (kynurenine detection by mass spectrometry); set-up: to induce the expression of indoleamine 2, 3-dioxygenase (IDO1); conditions: HeLa cells, pIC50, read-out: IDO1_HELA_PXC50 (converted)
Procedure, shortened: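 Compound potency reported as pIC50 from kynurenine/internal-standard ratio (RapidFire MS) in supernatant of IFN-γ-induced (10 nM) HeLa cells, 5,000 per well, after 2 days' treatment with 11-point dilutions. Cytotoxicity in the same format by luminescent ATP detection, reported as pCC50.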

SMILES	IC50 [2]	IC50 [4]	HELA_IDO1_TOX_PXC50 [1]	PBMC TOX PXC50 [3]
CC(C)CN(c1ccc([C@H](C)CC(=O)O)cc1NC1CCCC1)C1CCCCC1 [example 179, (3R)-3-{4-[cyclohexyl(2-methylpropyl)amino]-3-(cyclopentylamino)phenyl}butanoic acid]	0.126 µM	0.251 µM	<5	
CC(C)CN(CC(C)C)c1ccc(C(C)CC(=O)O)cc1Nc1nc(N2CCCC2)ns1.O=C(O)C(F)(F)F (centres unmarked) [example 118, 3-{4-[bis(2-methylpropyl)amino]-3-{[3-(pyrrolidin-1-yl)-1,2,4-thiadiazol-5-yl]amino}phenyl}butanoic acid]		5.01 µM	<4.3	<4.3
CC(C)CN(c1ccc(C2CC2C(=O)O)cc1Nc1nc(C(F)(F)F)ns1)C1CCCCC1 (single isomer, unassigned) [Example 105, 2-(4-(cyclohexyl(isobutyl)amino)-3-((3-(trifluoromethyl)-1,2,4-thiadiazol-5-yl)amino)phenyl)cyclopropanecarboxylic Acid]	0.00316 µM	0.00631 µM	<5	
CC(C)CN(c1ccc(C(C)CC(=O)O)cc1Nc1nc(Cl)ns1)C1COC1 (centres unmarked) [example 205, 3-{3-[(3-chloro-1,2,4-thiadiazol-5-yl)amino]-4-[{2-methylpropyl)(oxetan-3-yl)amino]phenyl}butanoic acid]		> 10 µM	<5	
CC(C)CN(c1ccc([C@H](C)CC(=O)O)cc1NC(C)C)C1CCCCC1 [example 180, (3R)-3-{4-[cyclohexyl(2-methylpropyl)amino]-3-[(propan-2-yl)amino]phenyl}butanoic acid]		3.98 µM	<5	
CC(C)CN(c1ccc(-c2cccnc2C(=O)O)cc1Nc1nc(Cl)ns1)C1CCOCC1 [example 270, 3-{3-[(3-chloro-1,2,4-thiadiazol-5-yl)amino]-4-[(2-methylpropyl)(oxan-4-yl)amino]phenyl}pyridine-2-carboxylic acid]		1.58 µM	<5	
CC(C)CN(CC(C)C)c1ccc(C(C)CC(=O)O)cc1Nc1nc2ccccc2n1C (centres unmarked) [example 119, 3-{4-[bis(2-methylpropyl)amino]-3-[(1-methyl-1H-1,3-benzodiazol-2-yl)amino]phenyl}butanoic acid]		1.26 µM	<4.3	<4.3
CC(C)CN(CC(C)C)c1ccc(C(C)CC(=O)O)cc1Nc1ccc(CO)cn1 (centres unmarked) [example 194, 3-{4-[bis(2-methylpropyl)amino]-3-{[5-(hydroxymethyl)pyridin-2-yl]amino}phenyl}butanoic acid]		0.2 µM	<5	
CC(C)CN(c1ccc(C(C)OCC(=O)O)cc1Nc1ccc(C(N)=O)cn1)C1CCCCC1 (centres unmarked) [example 201, 2-(1-{3-[(5-carbamoylpyridin-2-yl)amino]-4-[cyclohexyl(2-methylpropyl)amino]phenyl}ethoxy)acetic acid]		> 10 µM	<5	
COCc1ncc(Nc2cc(C(C)CC(=O)O)ccc2N(CC(C)C)CC(C)C)s1 (centres unmarked) [example 189, 3-{4-[bis(2-methylpropyl)amino]-3-{[2-(methoxymethyl)-1,3-thiazol-5-yl]amino}phenyl}butanoic acid]		0.2 µM	<5	
CC(C)CN(CC(C)C)c1ccc(C(C)CC(=O)O)cc1Nc1nc(C(C)(C)C)cs1 (centres unmarked) [example 133, 3-{4-[bis(2-methylpropyl)amino]-3-[(4-tert-butyl-1,3-thiazol-2-yl)amino]phenyl}butanoic acid]		3.98 µM	4.5	
CC(C)CN(c1ccc(-c2c[nH]nc2C(=O)O)cc1Nc1nc2ccccc2o1)C1CCCCC1 [example 175, 4-{3-[(1,3-benzoxazol-2-yl)amino]-4-[cyclohexyl(2-methylpropyl)amino]phenyl}-1H-pyrazole-3-carboxylic acid]		5.01 µM	<5	

The next lines start with results.

IC50 [2]	IC50 [4]	SMILES	HELA_IDO1_TOX_PXC50 [1]	PBMC TOX PXC50 [3]
0.631 µM	1 µM	CC(C)CN(c1ccc(C(C)CC(=O)O)cc1NC1CCC(C)CC1)C1CCCCC1 (centres unmarked) [example 158, 3-{4-[cyclohexyl(2-methylpropyl)amino]-3-[(4-methylcyclohexyl)ami-no]phenyl}butanoic acid]	<5	<5
0.00794 µM	0.0158 µM	COCc1nnc(Nc2cc([C@H](C)CC(=O)O)ccc2N(CC(C)C)C2CCCCC2)[nH]1 [Example 82, (R)-3-(4-(cyclohexyl(isobutyl)amino)-3-((5-(methoxymethyl)-4H-1,2,4-triazol-3-yl)amino)phenyl)butanoic Acid]	<5	<5
	3.98 µM	CC(C)CN(CC(C)C)c1ccc(C(C)CC(=O)O)cc1Nc1nc(N2CCOCC2)ns1.O=C(O)C(F)(F)F (centres unmarked) [example 117, 3-{4-[bis(2-methylpropyl)amino]-3-{[3-(morpholin-4-yl)-1,2,4-thiadiazol-5-yl]amino}phenyl}butanoic acid]	<4.3	<4.3
	0.794 µM	CC(C)CN(c1ccc(C(C)CC(=O)O)cc1NC1=N[C@@H](c2ccccc2)CS1)C1CCCCC1 (stereo partly drawn) [example 149, 3-{4-[cyclohexyl(2-methylpropyl)amino]-3-{[(4S)-4-phenyl-4,5-dihydro-1,3-thiazol-2-yl]amino}phenyl}butanoic acid]	<5	
	3.16 µM	CC(C)CN(c1ccc(C(C)CC(=O)O)cc1NC1CCNC1)C1CCCCC1 (centres unmarked) [example 136, 3-{4-[cyclohexyl(2-methylpropyl)amino]-3-[(pyrrolidin-3-yl)amino]phenyl}butanoic acid]	5.1	
	39.8 µM	CC(C)CN(CC(C)C)c1ccc(C(C)CC(=O)O)cc1Nc1nc(N2CCN(C)CC2)ns1 (centres unmarked) [example 116, 3-{4-[bis(2-methylpropyl)amino]-3-{[3-(4-methylpiperazin-1-yl)-1,2,4-thiadiazol-5-yl]amino}phenyl}butanoic acid]	<4.3	<4.3
	> 10 µM	CC(C)CN(CC(C)C)c1ccc(C(C)CC(=O)O)cc1NCc1noc(C2CC2)n1 (centres unmarked) [example 147, 3-{4-[bis(2-methylpropyl)amino]-3-{[(5-cyclopropyl-1,2,4-oxadiazol-3-yl)methyl]amino}phenyl} butanoic acid]	<5	
	> 10 µM	CC(=O)Nc1nnc(Nc2cc(C(C)CC(=O)O)ccc2N(CC(C)C)CC(C)C)s1 (centres unmarked) [example 187, 3-{4-[bis(2-methylpropyl)amino]-3-[(5-acetamido-1,3,4-thiadiazol-2-yl)amino]phenyl}butanoic acid]	<5	
	0.1 µM	COCc1ccc(Nc2cc(C(C)CC(=O)O)ccc2N(CC(C)C)CC(C)C)nc1 (centres unmarked) [example 193, 3-{4-[bis(2-methylpropyl)amino]-3-{[5-(methoxymethyl)pyridin-2-yl]amino}phenyl}butanoic acid]	<5	
	0.794 µM	CC(C)CN(c1ccc(-c2ncccc2C(=O)O)cc1Nc1nc2ccccc2o1)C1CCCCC1 [example 292, 2-{3-[(1,3-benzoxazol-2-yl)amino]-4-[cyclohexyl(2-methylpropyl)amino]phenyl}pyridine-3-carboxylic acid]	<5	
	> 10 µM	CC(C)CN(CC(C)C)c1ccc(C(C)CC(=O)O)cc1NC1CCC(C(=O)O)CC1 (centres unmarked) [example 198, 4-({2-[bis(2-methylpropyl)amino]-5-(1-carboxypropan-2-yl)phenyl}amino)cyclo-hexane-1-carboxylic acid]	<5	
	0.316 µM	CC(C)CN(CC(C)C)c1ccc(C(C)CC(=O)O)cc1Nc1ccsc1 (centres unmarked) [example 143, 3-{4-[bis(2-methylpropyl)amino]-3-[(thiophen-3-yl)amino]phenyl}butanoic acid]	<5	
	2 µM	COCc1ncc(Nc2cc(C(C)CC(=O)O)ccc2N(CC(C)C)CC(C)C)o1 (centres unmarked) [example 191, 3-{4-[bis(2-methylpropyl)amino]-3-{[2-(methoxymethyl)-1,3-oxazol-5-yl]amino]phenyl}butanoic acid]	<5	
	> 10 µM	Cc1nc(Cc2ccccc2)c(Nc2cc(C(C)CC(=O)O)ccc2N(CC(C)C)CC(C)C)s1 (centres unmarked) [example 146, 3-{3-[(4-benzyl-2-methyl-1,3-thiazol-5-yl)amino]-4-[bis(2-methylpropyl)amino]phenyl}butanoic acid]	<5	
